Measured values published in patent publication US20220304945A1, “METHODS OF TREATING METABOLIC SYNDROME RELATED CONDITIONS USING RETINOIC ACID RECEPTOR AGONISTS” (Cornell University, priority 2014, published 2022).

Legend:
[1] = test system: HF-fed C57/BL6 mice; experiment: Metabolic studies (body weight, GTT) in HF-fed wild type mice, 4 months; format: in vivo, mouse; conditions: obese HF-fed mice, 3.0 mg/100 ml drinking water
Procedure: Mice, diet, and drug treatment. Dietary Obesity Studies: Wild type (wt) male C57/BL6 male mice were maintained on either a standard laboratory chow-fed diet (Con) with 13% kcal fat, (diet #5053, Lab Diet, Inc, St. Louis, Mo.) or a high fat, western style diet (HFD) with 45% kcals from fat, (diet #58126, Lab Diet, Inc., St. Louis, Mo.) for 4 months. […]
Metabolic Measurements-Glucose tolerance was performed using an intraperitoneal glucose tolerance test (GTT) as previously described (Trasino et al., Vitamin A Deficiency Causes Hyperglycemia and Loss of Pancreatic β-Cell Mass, J Biol Chem. 2014 Dec. 1. pii: jbc.M114.616763). […] Tail vein blood glucose was measured at 20, 40, 60 and 120 minutes after injection using a FreeStyle Lite Blood Glucose Monitoring System (Abbott Diabetes Care, Inc. Alameda, Calif.). To determine insulin secretion responses to glucose, serum fractions were isolated between 0-60 minutes post glucose injections and insulin concentrations were measured using an Ultrasensitive Insulin ELISA Kit (Alpco, Inc. Salem, N.H.). Random blood glucose measurements were taken from tail veins of 4 mice per group at 2-3 random time points daily Means are expressed as±standard error of the mean (S.E.M) and P-values were calculated using one-way analysis of variance followed by Bonferroni post-hoc analysis.

[2] = test system: RARβ2 mRNA; experiment: Semi-quantitative PCR of pancreas, HF-fed mice; format: in vivo, mouse; conditions: HF diet mice; vs HF-vehicle
Text: Mice, diet, and drug treatment. WT male C57/BL6 male mice were maintained on either a standard laboratory chow-fed diet (CFD) with 13% kcal fat, (diet #5053, Lab Diet, Inc, St. Louis, Mo.) or a high fat, western style diet (HFD) with 60% kcals from fat, (diet #58126, Lab Diet, Inc., St. Louis, Mo.) for 4 months. One month after the start of the high fat diet treatment, the high fat diet group was further split into 2 groups for 3 months: i) high fat diet and the drinking water containing 1% DMSO; ii) high fat diet and the drinking water containing 1.5 mg/100 ml AC261066, a specific RARβ agonist. Then mice were sacrificed by cervical dislocation. Blood and various tissue samples were harvested.
Semi-Quantitate PCR. Total RNA was extracted from mouse tissues using TRIzol reagent (Life technologies) and (1 μg) was used to synthesize cDNA. cDNA synthesis was performed at 42° C. for 1 h in a final volume of 20 μl using qScript (Quanta, MD). Semi-quantitative PCR were performed Taq DNA polymerase (Invitrogen, CA). Three step PCR was run as follows: 94° C. for 30 s, 58-64° C. for 45 s for primer annealing and 72° C. for 1 min for primer extension. The number of cycles for each primer pair for amplification in the linear range was determined experimentally. PCR products were resolved on 2% agarose gels and visualized by staining with ehtidium bromide. […]

`CCCCOCCOc1nc(-c2ccc(C(=O)O)c(F)c2)sc1C` [AC261066] was tested, and the body weights [1] was “significant reductions” and the “pancreatic RARβ2 mRNA level” value [2] was “increased”.
